Reference: patent US10457663B2, “Pyrazol-pyridine derivatives” (Hoffmann-La Roche Inc., priority 2016, dated 2019)

Assays:
human EAAT3 = target: T1, human EAAT3 (Homo sapiens, UniProt P43005); assay: FLIPR Membrane Potential (FMP) assay; format: cell-based; conditions: HEK-293 cells stably expressing human EAAT3; L-glutamate as agonist at EC80; antagonist applied 15 min before; Kb by Cheng-Prusoff from IC50
T1 construct: expressed in transfected cells; host or cells: HEK-293
T1 sequence (P43005 1-524): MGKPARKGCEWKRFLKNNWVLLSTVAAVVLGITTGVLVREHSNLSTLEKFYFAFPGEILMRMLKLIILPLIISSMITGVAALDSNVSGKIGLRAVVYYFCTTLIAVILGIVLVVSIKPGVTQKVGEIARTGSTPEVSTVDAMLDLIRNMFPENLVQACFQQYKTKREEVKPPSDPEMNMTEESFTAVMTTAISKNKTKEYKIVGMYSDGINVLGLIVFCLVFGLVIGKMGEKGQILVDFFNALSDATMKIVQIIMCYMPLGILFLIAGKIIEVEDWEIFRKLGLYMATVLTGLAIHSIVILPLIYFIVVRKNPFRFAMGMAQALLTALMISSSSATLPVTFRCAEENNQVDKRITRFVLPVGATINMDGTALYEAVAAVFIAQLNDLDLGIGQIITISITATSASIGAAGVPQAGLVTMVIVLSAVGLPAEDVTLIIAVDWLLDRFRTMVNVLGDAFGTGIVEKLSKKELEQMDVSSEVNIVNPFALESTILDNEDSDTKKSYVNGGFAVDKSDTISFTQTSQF
Experimental: The FLIPR Membrane Potential (FMP) assay
HEK-293 cells stably expressing human EAAT3 were seeded at 55 000 cells/well in growth medium (DMEM glutamate free (Invitrogen 11960-044), 1% Pen Strep (10 ml/l GIBCO BRL N^o 15140-023), 10% FCS non dialysed heat inactivated, 5 mg/l puromycin) in poly-D-lysine treated 96-well black microtiter plates with clear-bottom. After 24 h, the growth medium was removed and 100 μl/well of Krebs buffer (140 mM NaCl, 4.7 mM KCl, 2.5 mM CaCl2), 1.2 mM MgCl2, 11 mM HEPES, 10 mM D-glucose, pH=7.4) added. The cells were then loaded by adding 100 μl/well FMP assay dye (FLIPR Membrane Potential assay reagent, Molecular Devices). The 96-well plates were then incubated at 37° C. for 1 h. The depolarization of the cells will cause more dye to enter in the cells, where it will bind to intracellular proteins and lipids and cause an increase in the fluorescence signal. Antagonist potency at human EAAT3 was determined by using L-glutamate as agonist at a concentration which gives 80% of the maximum response. The antagonists were applied 15 min before the application of the agonist L-glutamate. The assays were performed at room temperature and measurements done by using a Fluorometric Imaging Plate Reader (FLIPR, Molecular Devices) and filter #2. Responses were measured as peak increase in fluorescence minus basal (i.e. fluorescence without addition of L-glutamate). Kb was determined using the Cheng-Prusoff equation Kb=IC50/[1+(A/EC50)], where IC50 is the concentration of the antagonist producing 50% inhibition, A is the concentration of the agonist against which the IC50 is being determined (at EC80) and EC50 is the concentration of the agonist producing 50% […].

Row | Structure (SMILES) | Kb (human EAAT3) [nM] | melting point [°C]
1 | CC(C)(C)n1nccc1-c1cc(C(=O)NC(C)(C)C(F)(F)F)cc(-c2ccc(F)cc2)n1 [Example 13, 2-(2-tert-Butyl-pyrazol-3-yl)-6-(4-fluorophenyl)-N-(1,1,1-trifluoro-2-methyl-propan-2-yl)-pyridine-4-carboxamide] | 88 | 178
2 | CC(C)(C#N)NC(=O)c1cc(-c2ccc(F)cc2)nc(-c2ccnn2C(C)(C)C)c1 [Example 14, 2-(2-tert-Butylpyrazol-3-yl)-N-(2-cyano-propan-2-yl)-6-(4-fluoro-phenyl)-pyridine-4-carboxamide] | 71 | 213
3 | CC(C)(NC(=O)c1cc(-c2ccc(F)cc2)nc(-c2ccnn2C(C)(C)C)c1)C1CC1 [Example 15, 2-(2-tert-Butyl-pyrazol-3-yl)-N-(2-cyclopropyl-propan-2-yl)-6-(4-fluorophenyl)-pyridine-4-carboxamide] | 135 | 169
4 | CC(C)(CO)NC(=O)c1cc(-c2ccc(F)cc2)nc(-c2ccnn2C(C)(C)C)c1 [Example 16, 2-(2-tert-Butyl-pyrazol-3-yl)-6-(4-fluorophenyl)-N-(1-hydroxy-2-methyl-propan-2-yl)-pyridine-4-carboxamide] | 80 | 142
5 | CC(C)(C)NC(=O)c1cc(-c2ccc(F)c(F)c2)nc(-c2ccnn2C(C)(C)C)c1 [Example 19, N-tert-Butyl-2-(2-tert-butyl-pyrazol-3-yl)-6-(3,4-difluoro-phenyl)-pyridine-4-carboxamide] | 50 | 216
6 | CC(C)c1ccc(-c2cc(C(=O)NC(C)(C)C)cc(-c3ccnn3C(C)(C)C)n2)cc1 [Example 20, N-tert-Butyl-2-(2-tert-butyl-pyrazol-3-yl)-6-(4-propan-2-yl-phenyl)-pyridine-4-carboxamide] | 100 | 202
7 | Cc1ccc(-c2cc(C(=O)NC(C)(C)C)cc(-c3ccnn3C(C)(C)C)n2)cc1 [Example 22, N-tert-Butyl-2-(2-tert-butyl-pyrazol-3-yl)-6-(4-methyl-phenyl)-pyridine-4-carboxamide] | 54 | 182
8 | CC(C)(C)NC(=O)c1cc(-c2ccc(Cl)c(F)c2)nc(-c2ccnn2C(C)(C)C)c1 [Example 24, N-tert-Butyl-2-(2-tert-butyl-pyrazol-3-yl)-6-(4-chloro-3-fluoro-phenyl)-pyridine-4-carboxamide] | 110 | 208
9 | Cc1ccc(-c2cc(C(=O)NC(C)(C)C)cc(-c3ccnn3C(C)(C)C)n2)cc1F [Example 26, N-tert-Butyl-2-(2-tert-butyl-pyrazol-3-yl)-6-(3-fluoro-4-methyl-phenyl)-pyridine-4-carboxamide] | 89 | 207
10 | CC(C)(C)NC(=O)c1cc(-c2ccccc2)nc(-c2ccnn2C(C)(C)C)c1 [Example 27, N-tert-Butyl-2-(2-tert-butyl-pyrazol-3-yl)-6-phenyl-pyridine-4-carboxamide] | 94 | 209
11 | CC(C)n1nccc1-c1cc(C(=O)NC(C)(C)C)cc(-c2ccccc2)n1 [Example 28, N-tert-Butyl-2-phenyl-6-(2-propan-2-yl-pyrazol-3-yl)-pyridine-4-carboxamide] | 310 | 197
12 | Cc1cc(-c2cc(C(=O)NC(C)(C)C)cc(-c3ccnn3C(C)C)n2)ccc1F [Example 37, N-tert-Butyl-2-(4-fluoro-3-methyl-phenyl)-6-(2-propan-2-yl-pyrazol-3-yl)-pyridine-4-carboxamide] | 400 | 160
13 | CCn1nccc1-c1cc(C(=O)NC(C)(C)C)cc(-c2ccc(Cl)cc2)n1 [Example 39, N-tert-Butyl-2-(4-chlorophenyl)-6-(2-ethyl-pyrazol-3-yl)-pyridine-4-carboxamide] | 510 | 179
14 | CC(C)(C)NC(=O)c1cc(-c2ccc(Cl)cc2)nc(-c2ccnn2CC2CC2)c1 [Example 40, N-tert-Butyl-2-(4-chlorophenyl)-6-[2-(cyclopropyl-methyl)-pyrazol-3-yl]-pyridine-4-carboxamide] | 490 | 218
15 | CCn1nccc1-c1cc(C(=O)NC(C)(C)C)cc(-c2ccc(C(F)(F)F)cc2)n1 [Example 41, N-tert-Butyl-2-(2-ethyl-pyrazol-3-yl)-6-[4-(trifluoromethyl)-phenyl]-pyridine-4-carboxamide] | 750 | 186
16 | CC(C)(C)NC(=O)c1cc(-c2ccc(C(F)(F)F)cc2)nc(-c2ccnn2CC2CC2)c1 [Example 42, N-tert-Butyl-2-[2-(cyclopropylmethyl)-pyrazol-3-yl]-6-[4-(trifluoromethyl)-phenyl]-pyridine-4-carboxamide] | 380 | 203
17 | CC(C)n1nccc1-c1cc(C(=O)NC(C)(C)C(F)(F)F)cc(-c2ccc(F)cc2)n1 [Example 44, 2-(4-Fluorophenyl)-6-(2-propan-2-yl-pyrazol-3-yl)-N-(1,1,1-trifluoro-2-methyl-propan-2-yl)-pyridine-4-carboxamide] | 560 | 186
18 | CC(C)n1nccc1-c1cc(C(=O)NC(C)(C)C2CC2)cc(-c2ccc(F)cc2)n1 [Example 46, N-(2-Cyclopropyl-propan-2-yl)-2-(4-fluorophenyl)-6-(2-propan-2-yl-pyrazol-3-yl)-pyridine-4-carboxamide] | 550 | 173
19 | CC(C)n1nccc1-c1cc(C(=O)NC(C)(C)CO)cc(-c2ccc(F)cc2)n1 [Example 47, 2-(4-Fluorophenyl)-N-(1-hydroxy-2-methyl-propan-2-yl)-6-(2-propan-2-yl-pyrazol-3-yl)-pyridine-4-carboxamide] | 310 | 180
20 | CC(C)(C)NC(=O)c1cc(-c2ccc(F)cc2)nc(-c2ccnn2C2CC2)c1 [Example 48, N-tert-Butyl-2-(2-cyclopropyl-pyrazol-3-yl)-6-(4-fluorophenyl)-pyridine-4-carboxamide] | 240 | 175
21 | CC(C)n1nccc1-c1cc(C(=O)NC(C)(C)C2CC2)cc(-c2ccc(Cl)cc2)n1 [Example 49, 2-(4-Chlorophenyl)-N-(2-cyclopropyl-propan-2-yl)-6-(2-propan-2-yl-pyrazol-3-yl)-pyridine-4-carboxamide] | 3100 | 164
22 | CC(C)n1nccc1-c1cc(C(=O)NC(C)(C)C(F)(F)F)cc(-c2ccc(Cl)cc2)n1 [Example 50, 2-(4-Chlorophenyl)-6-(2-propan-2-yl-pyrazol-3-yl)-N-(1,1,1-trifluoro-2-methylpropan-2-yl)-pyridine-4-carboxamide] | 1430 | 177
23 | CC(C)n1nccc1-c1cc(C(=O)NC(C)(C)CO)cc(-c2ccc(Cl)cc2)n1 [Example 51, 2-(4-Chlorophenyl)-N-(1-hydroxy-2-methylpropan-2-yl)-6-(2-propan-2-yl-pyrazol-3-yl)-pyridine-4-carboxamide] | 340 | 165
24 | CC(C)n1nccc1-c1cc(C(=O)NC(C)(C)C#N)cc(-c2ccc(Cl)cc2)n1 [Example 52, 2-(4-Chlorophenyl)-N-(2-cyanopropan-2-yl)-6-(2-propan-2-yl-pyrazol-3-yl)-pyridine-4-carboxamide] | 440 | 206
25 | CC(C)(NC(=O)c1cc(-c2ccc(Cl)cc2)nc(-c2ccnn2C(C)(C)C)c1)C1CC1 [Example 53, 2-(2-tert-Butyl-pyrazol-3-yl)-6-(4-chlorophenyl)-N-(2-cyclopropyl-propan-2-yl)-pyridine-4-carboxamide] | 860 | 161
26 | CC(C)(C)n1nccc1-c1cc(C(=O)NC(C)(C)C(F)(F)F)cc(-c2ccc(Cl)cc2)n1 [Example 54, 2-(2-tert-Butyl-pyrazol-3-yl)-6-(4-chlorophenyl)-N-(1,1,1-trifluoro-2-methyl-propan-2-yl)-pyridine-4-carboxamide] | 440 | 206
